Target: T1, purified PhnO protein (Escherichia coli, UniProt P16691, P2A)
T1 construct: made in house; host or cells: E. coli JM101 carrying pMON15032 (recA promoter, nalidixic acid induction)
Assay: AMPA transacylase acyl-CoA acyl donor specificity, HPLC
Format: biochemical, E. coli
Settings: for [^14C]-AMPA % Conversion: 5 minutes 30° C.; for % Activity: 1 mM acetyl-CoA = 100% reference
Experimental: PhnO was purified from a one liter Luria Bertani broth culture of E. coli JM101 expressing a recombinant phnO gene from pMON15032 after nalidixic acid induction for three hours at 37° C. Cells were harvested by centrifugation and resuspended in 40 ml cold Tris buffer (0.1 M Tris-HCl pH 8) and placed on ice. The cell suspension was brought to 1 mM DTT and 0.5 mM PMSF. The suspension was lysed by 2 passages through a prechilled French pressure cell at 1,100 psi, centrifuged at 12,000 g (10,000 rpm in an Sorvall SA600 rotor) for 40 min at 4° C., then placed on ice. The cleared supernatants were poured into fresh 15 ml polypropylene tubes. The samples were split again into two equal portions and maintained at −80° C. until used further for purification of PhnO protein. 20 microliters of the soluble fraction was assayed for enzyme activity using the HPLC method described above in Example 2, except after terminating the assay with acid addition, the sample was stored at −80° C. A Sephacryl S200 column was prepared according to the manufacturers' instructions and equilibrated with a solution containing 20 mM Tris pH 8.0 and 0.5 mM MgCl2. The entire total soluble extract was layered over the top of the column bed after thawing on ice. Forty 9 ml fractions were collected from the column eluate, and thirty microliters of each fraction was analyzed by western blot using anti-PhnO antiserum after resolution on a 15% SDS-PAGE gel. Also, thirty microliters of each fraction was analyzed for AMPA acyl transferase activity using the method described in Example 2. […] These were represented by fractions 7 through 19 in this example, and were combined into a 100 ml volume, distributed into […] each containing 10 ml volumes, and stored at −80° C. for further use.
Anion exchange chromatography was used to determine the elution pattern of PhnO away from other contaminating proteins that co-elute during the Sephacryl S200 fractionation. One tube from the combined PhnO positive fractions was thawed on ice and injected into a 5/5 Mono-Q column pre-equilibrated with buffers A (one liter of 20 mM Tris-HCl pH 8.0 Mili-Q distilled deionized water) and B (one liter of 20 mM Tris-HCl pH 8.0, 1 M NaCl). The sample containing PhnO active protein was injected into the column and one milliliter fractions were collected. The column was washed for five minutes with a flow rate of 1.8 ml per minute Buffer A after loading the PhnO containing sample. At five minutes, Buffer B was added to the flow volume at 0.5 ml per minute for four minutes. Buffer B was ramped up to 22% of the flow volume at 10 minutes, 30% at 12 minutes, 36% at 13 minutes, 41% at 14 minutes, 46% at 15 minutes, 74% at 16 minutes, and 100% at 16 minutes through 22 minutes, at which point Buffer B flow was terminated and Buffer A was reinitiated at 100% to equilibrate the column. Ten microliter volumes from individual fractions collected from the Mono-Q column were analyzed by western blot and for transacylase activity as described in Example 2. […] Samples of this purified PhnO protein were used to determine enzyme's acyl donor substrate specificity.
Enzyme reactions were prepared as follows. […] A assay premix was prepared from which 45 microliters was used in each 100 microliter reaction. This 45 microliter premix sample consisted of 40 microliters distilled and deionized water, 2 microliters of 50 mM MgCl2, and 3 microliters of 1.3 mM [^14C]-AMPA (115,392 dpm per microliter). Reactions were initiated by mixing 40 microliters of 125 mM Tris-HCl pH 8.0, […] protein sample and 10 microliters acyl-CoA acyl donor compound in a microcentrifuge tube at room temperature. Each acyl-CoA acyl donor compound was prepared as a stock solution of 1 mM, 5 mM or 10 mM stocks. Each tube was then mixed with 45 microliters of the assay premix containing the [^14C]-AMPA […] substrate, mixed gently and transferred to a 30° C. water bath for 5 minutes. […]

T1 sequence (P16691 whole entry P2A): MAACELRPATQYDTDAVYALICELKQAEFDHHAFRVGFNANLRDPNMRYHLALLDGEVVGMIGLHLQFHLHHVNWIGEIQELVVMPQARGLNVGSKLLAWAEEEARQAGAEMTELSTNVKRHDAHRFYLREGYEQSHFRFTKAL

SMILES	[^14C]-AMPA % Conversion (acyl donor 0.1 mM) [%]	% Activity (acyl donor 0.1 mM) [%]	[^14C]-AMPA % Conversion (acyl donor 0.5 mM) [%]	% Activity (acyl donor 0.5 mM) [%]	[^14C]-AMPA % Conversion (acyl donor 1 mM) [%]	% Activity (acyl donor 1 mM) [%]
C/C=C/C(=O)SCCNC(=O)CCNC(=O)[C@H](O)C(C)(C)COP(=O)(O)OP(=O)(O)OC[C@H]1O[C@@H](n2cnc3c(N)ncnc32)[C@H](O)[C@@H]1OP(=O)(O)O [Crotonoyl-CoA, crotonoyl-CoA]	0.80	0.80	0.00	0.00	0.00	0.00
CCNC(=O)CCNC(=O)[C@H](O)C(C)(C)COP(=O)(O)OP(=O)(O)OC[C@H]1O[C@@H](n2cnc3c(N)ncnc32)[C@H](O)[C@@H]1OP(=O)(O)O [Desulfo-CoA, desulfo-CoA]	0.95	0.95	1.25	1.25	0.52	0.52
CC(C)(COP(=O)(O)OP(=O)(O)OC[C@H]1O[C@@H](n2cnc3c(N)ncnc32)[C@H](O)[C@@H]1OP(=O)(O)O)[C@@H](O)C(=O)NCCC(=O)NCCSC(=O)CCCC(=O)O [Glutaryl-CoA, glutaryl-CoA]	0.81	0.81	0.00	0.00	0.57	0.57
CC(C)C(=O)SCCNC(=O)CCNC(=O)[C@H](O)C(C)(C)COP(=O)(O)OP(=O)(O)OC[C@H]1O[C@@H](n2cnc3c(N)ncnc32)[C@H](O)[C@@H]1OP(=O)(O)O [Isobutyryl-CoA, isobutyryl-CoA]	2.10	2.10	0.20	0.20	0.00	0.00
CC(C(=O)O)C(=O)SCCNC(=O)CCNC(=O)[C@H](O)C(C)(C)COP(=O)(O)OP(=O)(O)OC[C@H]1O[C@@H](n2cnc3c(N)ncnc32)[C@H](O)[C@@H]1OP(=O)(O)O (stereo partly drawn) [Methylmalonyl-CoA, methylmalonyl CoA]	1.11	1.11	2.08	2.08	2.21	2.21
CCC(=O)SCCNC(=O)CCNC(=O)[C@H](O)C(C)(C)COP(=O)(O)OP(=O)(O)OC[C@H]1O[C@@H](n2cnc3c(N)ncnc32)[C@H](O)[C@@H]1OP(=O)(O)O [Propionyl-CoA, n-propionyl-CoA]	78.2	78.2	97.8	97.8	100.00	100.00
CC(C)(COP(=O)(O)OP(=O)(O)OC[C@H]1O[C@@H](n2cnc3c(N)ncnc32)[C@H](O)[C@@H]1OP(=O)(O)O)[C@@H](O)C(=O)NCCC(=O)NCCSC(=O)CCC(=O)O [Succinyl-CoA, succinyl-CoA]	5.06	5.06	3.38	3.38	1.56	1.56
C/C=C(\C)C(=O)SCCNC(=O)CCNC(=O)[C@H](O)C(C)(C)COP(=O)(O)OP(=O)(O)OC[C@H]1O[C@@H](n2cnc3c(N)ncnc32)[C@H](O)[C@@H]1OP(=O)(O)O [Tiglyl-CoA, tiglyl-CoA]	0.00	0.00	0.00	0.00	0.99	0.99
CCCCC(=O)SCCNC(=O)CCNC(=O)[C@H](O)C(C)(C)COP(=O)(O)OP(=O)(O)OC[C@H]1O[C@@H](n2cnc3c(N)ncnc32)[C@H](O)[C@@H]1OP(=O)(O)O [Valeryl-CoA, n-valeryl-CoA]	0.24	0.24	0.00	0.00	0.33	0.33
